Measured values taken from patent US10525105B2, “Peptide for repairing cartilage and treating osteoarthritis” (Guangzhou Link Health Pharma Co., Ltd., priority 2016, dated 2020).
Peptide text beside a SMILES is read from it.

Columns and labels:
chondrocytes [1] = test: Proliferation of chondrocytes by MTS assay; format: cell-based, New Zealand white rabbit; settings: 5 days of treatment, OD 570 nm, BM23 peptide 0.1, 0.3, 1 μM, IGF-1 1 μM
Protocol: The articular cartilage of New Zealand white rabbit aged 2 months old was cut under sterile conditions, and cut into a size of 1 mm. The articular cartilage was digested at 37° C. according to the following procedure: (1) digested with 2 mg/ml hyaluronidase for 45 minutes; (2) digested with 2 mg/ml trypsin for 45 minutes; and (3) digested with 4 mg/ml type II collagenase for 3 hours, washed, and then centrifuged (1500 r/min) for 5 minutes; and the precipitate was cultured in a DMEM medium containing 15% fetal bovine serum. […] Detection of the Proliferation of Chondrocytes by MTS Assay Chondrocytes were inoculated in a 96-well plate at 2×10^4 cells/well, and different concentrations of BM23 peptides (0.1 μM, 0.3 μM, and 1 μM) were added; PBS was set as a negative control group, and IGF-1 (1 μM) was set as a positive control group. The 96-well plate was placed in a 5% CO2 saturated water-vapor carbon dioxide incubator for a culture at 37° C. for 5 days. 20 μl of MTS mixture was added to each well, and the culture was continued for 3-4 hours for coloration. Before testing, the culture plate was shaken for 10 seconds to uniformly mix colors. The optical density (OD) of each well was measured at a wavelength of 570 nm on an enzyme-linked immunometric meter.

[2] = system: rat bone marrow mesenchymal stem cells (BMSCs); test: Chondrogenic induction of BMSCs, quantitative PCR of COL2A1 and ACAN mRNA; format: cell-based; settings: rat BMSCs in chondrogenic medium
Protocol: Three SD rats aged 8 weeks were sacrificed by a dislocation method and disinfected with 70% ethanol for 5 minutes. The abdominal wall layers of the three SD rats were then cut with scissors, an incision of each SD rat was pulled to a femur, and muscles on the femur were carefully separated.
A middle of the femur was cut off, and a bone marrow cavity was repeatedly washed by a low-sugar DMEM medium (containing 1 mL/L of heparin) sucked with a syringe to flush out bone marrow.
The bone marrow was repeatedly washed with the syringe, and prepared into a single cell suspension by successively passing through needle No. 7 and needle No. 4.
The single cell suspension was centrifuged (1500 r/min, 10 min), and a supernatant was discarded; DMEM-F12 complete medium containing 10% FBS was added, and then an inoculation was performed in a culture flask at a density of 10^7 cells/mL, and the culture flask was placed in an incubator having 5% CO2 at 37° C. for a culture.
The cells were purified by a differential adherent culture. The culture solution was changed 48 hours after the inoculation, and thereafter, the culture solution was changed every 3 days to remove non-adherent hematopoietic cells.
After the cells grew to 80%-90%, a passage was performed. The culture solution was removed, and the cells were washed with PBS to remove residual serum; and the PBS was removed.
A BMSCs digestive juice (containing 0.25% trypsin and 0.02% EDTA solution) was added for a slight shaking until the BMSCs digestive juice just covers the bottom of the culture flask; and a digestion time was about 5 minutes. Then, the passage was carried out.
The cells were transferred to a centrifuge tube, centrifuged at 1500 r/min for 10 minutes; a supernatant was removed; and a complete culture medium of mesenchymal stem cells was added for re-suspending the cells.
The BM23 peptide was dissolved in phosphate buffered saline (PBS).
(§1) The cells were re-suspended in a complete chondrogenic medium (purchased from Guangzhou Cyagen Biosicences Inc., Item No.: RASMX-90011) containing different concentrations of BM23 peptides (0.1 μM, 0.3 μM, and 1 μM), so that the concentration of BMSCs was 5.0×10^5 cells per ml. PBS was used as a negative control, and 1 μM human insulin growth factor (IGF-1, purchased from Beijing Yiqiao Shenzhou Biotechnology Co., Ltd.) was used as a positive control.
The treated BMSCs were incubated at 37° C. under 5% CO2 saturated humidity. The medium was changed every 2-3 days, and 0.5 mL of fresh complete chondrogenic medium was added to each tube. […]
Quantitative PCR Detection […]
Quantitative PCR was performed using cDNA as a template and the following primers: • (1) rat COL2A1-F1: 5′ […] […]

mesenchymal stem cells = test: Immunohistochemical detection of COL2A1 in mesenchymal stem cells; format: cell-based, rat; settings: 1 μM
Protocol: as §1
The treated BMSCs were incubated at 37° C. under 5% CO2 saturated humidity. The medium was changed every 2-3 days, and 0.5 mL of fresh complete chondrogenic medium was added to each tube.
Generally, samples can be collected after 28 days of continuous induction; and cartilage balls can be subjected to formalin fixation, paraffin embedding, sectioning and alcian blue staining.
Paraffin Embedding of Tissues:
The specimens were fixed with 4% paraformaldehyde for 24-36 hours.
The specimens were taken out and washed to remove the fixative, and a material with a suitable size (about 0.2 cm in thickness) was cut for embedding.
The specimens were respectively treated once with 70%, 80%, 90% and 95% ethanol, and 60 minutes are for each treatment. The specimens were treated twice with 100% ethanol, and 50 minutes are for each time.
The specimens were treated once with ½xylene-½ absolute ethanol for 15 minutes. […]

chondrocytes [3] = test: Immunohistochemical detection of COL2A1 in chondrocytes; format: cell-based, New Zealand white rabbit; settings: 1 μM, 5 days
Protocol: The articular cartilage of New Zealand white rabbit aged 2 months old was cut under sterile conditions, and cut into a size of 1 mm. The articular cartilage was digested at 37° C. according to the following procedure: (1) digested with 2 mg/ml hyaluronidase for 45 minutes; (2) digested with 2 mg/ml trypsin for 45 minutes; and (3) digested with 4 mg/ml type II collagenase for 3 hours, washed, and then centrifuged (1500 r/min) for 5 minutes; and the precipitate was cultured in a DMEM medium containing 15% fetal bovine serum. Immunohistochemical Detection of COL2A1 Chondrocytes were inoculated at 3.5×10^5 cells/ml in a 6-well culture plate with coverslips, and different concentrations of BM23 peptides were added; PBS was set as a negative control group, and IGF-1 was set as a positive control group. The 6-well culture plate was placed in a 5% CO2 saturated water-vapor carbon dioxide incubator for a culture at 37° C. for 5 days. Immunohistochemical staining was performed as in Embodiment 3.

[4] = system: knee articular cartilage defect; test: Rabbit cartilage repair model; format: in vivo, New Zealand rabbits; settings: for general observation score: 90 days after first administration, 0-4 point scale; for histopathological scores of articular cartilage: 90 days, ICRS pathological scoring, grade 0-6, six rabbits
Protocol: Animals: New Zealand rabbits, 2 months old, half male and half female
Construction of models: New Zealand rabbits were anesthetized with 6% pentobarbital sodium (0.7 mL/kg) via marginal ear veins. After anesthesia, a longitudinal incision having a length of about 3 cm was made on the medial side of the knee joint of the left hind leg; the skin, subcutaneous tissue and joint capsule were cut successively to maintain the integrity of the patellar ligament; and the patella was turned outward to expose the femoral condyle. When the knee joint flexes 90°, an articular cartilage defect with a diameter of 4.2 mm and a depth of 3 mm was drilled in the femur and the middle of lateral intercondylar articular surfaces corresponding to the patella by using a drill bit with a diameter of 4.2 mm (according to visible bleeding on subchondral bone). The defect was washed with normal saline without any other treatment. […] After the patella is reset, the muscle and skin incisions are sequentially sutured. After the operation, immediately, the animals were intramuscularly injected with penicillin sodium once a day for 3 consecutive days to prevent infection.
Administration: the New Zealand rabbits with knee articular cartilage defects were divided into four groups: negative control group, low-dose group (1 mg/rabbit), medium-dose group (3 mg/rabbit) and high-dose group (10 mg/rabbit), 12 rabbits in each group, half male and half female in each group. On the 6th day after constructing the models, each group of rabbits was administered intra-articularly. Namely, 1 mg/rabbit, 3 mg/rabbit and 10 mg/rabbit were administered to the test rabbits, respectively, and the administration volume was 0.2 ml.
Sacrifice and observation: at 90 days after the first administration, 6 rabbits (half male and half female) were selected from each group and sacrificed, and the repair situation of the knee articular cartilage in each rabbit was observed by dissection.
(1) General observation: during necropsy, the articular cavity was opened, the patella articular surface was exposed, and the repair of the filling edge of the defect, the flatness of the cartilage surface, the color of the new cartilage, etc., were observed.
Subsequently, scoring was performed according to the following criteria:
0 point: the articular surface is smooth and the color is normal;
1 point: the articular surface is rough, with small fissures and dark color;
2 points: the cartilage defect has reached the middle layer of cartilage;
3 points: the articular surface ulcer is formed, and the cartilage defect has reached the deep layer of cartilage; and
4 points: the cartilage is exfoliated, and subchondral bones are exposed.
(2) Histological pathological observation: observation was performed under light microscope, and scoring was performed according to the ICRS pathological scoring standard:
Grade 0: the cartilage surface is flat and the cartilage is intact;
Grade 1: the superficial fibers are formed in the cartilage surface and are uneven;
Grade 2: the cartilage surface is discontinuous, accompanied by cell proliferation; and metachromatic materials are increased or decreased in the II-III layers;
Grade 3: cartilage rhagadia has reached the III layer or erosion occurs;
Grade 4: the erosion of the cartilage is aggravated, and the articular cartilage is damaged;
Grade 5: the articular cartilage is exfoliated; and
Grade 6: the joint is deformed.
After the rabbits were sacrificed by anesthesia and exsanguination, the articular cartilage tissue was exfoliated and fixed with 10% neutral formalin, followed by dehydration, conventional paraffin embedding, sectioning, HE staining and mounting, and detection was performed by light microscopy.

in vivo = test: in vivo; design: species or system New Zealand rabbits; settings: New Zealand, rabbit, iv, 0.5 mg/kg
Protocol: LC/MSMS methodology was established, Finnigan TSQ Discovery Max LC/MS was equipped with Surveyor HPLC system. The detection limit was 1-1000 ng/ml, and the recovery rate was over 80%. Six New Zealand rabbits were randomly divided into two groups (three rabbits in each group). […] The blood concentration was measured by LC/MSMS method, 100 μl of blood plasma was taken, 500 μl of a mixed solvent containing IS 2000 ng/ml of acetonitrile and methanol solution at a ratio of 70:30 was added, shaken, and centrifuged at 12000 rpm for 10 minutes. 20 μl of supernatant was injected for LC/MSMS analysis. The main pharmacokinetic parameters were calculated by using 3P97 pharmacokinetic software.

[5] = high-dose group 10 mg/rabbit intra-articular
[6] = low-dose group 1 mg/rabbit intra-articular
[7] = medium-dose group 3 mg/rabbit intra-articular

**Q.** For “positive control: human insulin growth factor (IGF-1), used at 1 μM as positive control”, which “proliferation of chondrocytes compared with the PBS group” value (chondrocytes [1]) is on record?
**A.** significantly promoted

**Q.** With CC[C@H](C)[C@H](NC(=O)[C@H](CCCNC(=N)N)NC(=O)[C@H](Cc1c[nH]cn1)NC(=O)[C@H](CCCCNC(=N)N)NC(=O)[C@H](CC(N)=O)NC(=O)[C@H](CCCNC(=N)N)NC(=O)[C@H](Cc1c[nH]cn1)NC(=O)[C@H](CCCCN)NC(=O)[C@H](CC(C)C)NC(=O)[C@H](N)CCC(N)=O)C(=O)N[C@@H](CCCCN)C(=O)N[C@H](C(=O)NCC(=O)N[C@@H](CO)C(=O)N[C@H](C(=O)N[C@@H](CC(N)=O)C(=O)N[C@@H](Cc1c[nH]cn1)C(=O)NCC(=O)N[C@@H](CC(C)C)C(=O)N[C@H](C(=O)N[C@@H](CCC(N)=O)C(=O)N[C@@H](CO)C(=O)N[C@@H](CC(C)C)C(N)=O)C(C)C)[C@@H](C)O)[C@@H](C)O [BM23 peptide] (HELM PEPTIDE1{[dQ].L.K.H.R.N.[N=C(N)NCCCC[C@H](N[*:1])C(=O)[*:2]].H.R.I.K.T.G.S.T.N.H.G.L.V.Q.S.L.[am]}$$$$V2.0; N-terminus assumed) as the compound, how does the “mRNA expression level of ACAN compared with PBS treatment” value ([2]; 0.1 μM) read?
**A.** no significant effect

**Q.** What about the “mRNA expression level of COL2A1 compared with PBS treatment” value ([2]; 0.1 μM) of the same compound?
**A.** no significant effect

**Q.** What about the “mRNA expression level of ACAN compared with PBS treatment” value ([2]; 0.3 μM) of the same compound?
**A.** significantly different

**Q.** And the “mRNA expression level of ACAN compared with PBS treatment” value ([2]; 1 μM)?
**A.** significantly different

**Q.** And the “expression level of COL2A1 protein (immunohistochemical staining) vs PBS treatment group” value (mesenchymal stem cells)?
**A.** significantly increased

**Q.** And the “proliferation of chondrocytes compared with the PBS group” value (chondrocytes [1])?
**A.** significantly promoted

**Q.** What about the “expression level of COL2A1 protein (immunohistochemical staining) vs PBS treatment group” value (chondrocytes [3]) of the same compound?
**A.** significantly increased

**Q.** What about the general observation score [4, 5] of the same compound?
**A.** 2.1 points

**Q.** And the “histopathological scores of articular cartilage” value (shortened to “histopathological scores”) [4, 5]?
**A.** 2.1 points

**Q.** And the general observation score [4, 6]?
**A.** 3.7 points

**Q.** What about the “histopathological scores” value [4, 6] of the same compound?
**A.** 3.7 points

**Q.** What about the general observation score [4, 7] of the same compound?
**A.** 3.0 points

**Q.** What about the “histopathological scores” value [4, 7] of the same compound?
**A.** 3.0 points

**Q.** What about the half-life (in vivo) of the same compound?
**A.** 2.05 ± 0.633 h
